target: Recombinant human cathepsin S (CatS) (Homo sapiens, UniProt P25774); test: Recombinant human cathepsin S (CatS) inhibition assay, fluorogenic substrate Z-Valine-Valine-Arginine-AMC; details: not given;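 further: Baculovirus-expressed CatS in pH 5.0 sodium acetate buffer with DTT and NaCl, fluorescence read each minute over 20 min, inhibition derived from rate slope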
Sequence (P25774 115-331): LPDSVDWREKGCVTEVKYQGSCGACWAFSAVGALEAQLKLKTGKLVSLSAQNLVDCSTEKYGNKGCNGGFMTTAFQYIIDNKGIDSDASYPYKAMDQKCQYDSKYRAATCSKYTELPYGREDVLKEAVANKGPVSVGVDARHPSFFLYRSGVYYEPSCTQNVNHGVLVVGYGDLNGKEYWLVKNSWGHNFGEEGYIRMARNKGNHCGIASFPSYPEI

Row | IC50 [nM] | Compound
1 | 180 | CS(=O)(=O)N1CCc2c(c(-c3ccc(Cl)c(C#Cc4ccc5c(c4)CNCC5)c3)nn2CC(O)CN2CCCCC2)C1 (centres unmarked) [Example 134, 1-{3-[4-Chloro-3-(1,2,3,4-tetrahydro-isoquinolin-7-ylethynyl)-phenyl]-5-methanesulfonyl-4,5,6,7-tetrahydro-pyrazolo[4,3-c]pyridin-1-yl}-3-piperidin-1-yl-propan-2-ol]
2 | 880 | Cc1ccccc1CCc1cc(-c2nn(CCCN3CCOCC3)c3c2CN(S(C)(=O)=O)CC3)ccc1Cl [Example 60, 3-[4-Chloro-3-(2-o-tolyl-ethyl)-phenyl]-5-methanesulfonyl-1-(3-morpholin-4-yl-propyl)-4,5,6,7-tetrahydro-1H-pyrazolo[4,3-c]pyridine]
3 | 1010 | CC(C)(C)OC(=O)NCc1cccc(C#Cc2cc(-c3nn(CCCN4CCOCC4)c4c3CN(S(C)(=O)=O)CC4)ccc2Cl)c1 [Example 376, 1,1-Dimethylethyl {[3-({2-chloro-5-[5-(methylsulfonyl)-1-(3-morpholin-4-ylpropyl)-4,5,6,7-tetrahydro-1H-pyrazolo[4,3-c]pyridin-3-yl]phenyl}ethynyl)phenyl]methyl}carbamate]
4 | 2790 | CC(C)(C)OC(=O)NCc1ccccc1C#Cc1cc(-c2nn(CCCN3CCOCC3)c3c2CN(S(C)(=O)=O)CC3)ccc1Cl [Example 384, 1,1-Dimethylethyl {[2-({2-chloro-5-[5-(methylsulfonyl)-1-(3-morpholin-4-ylpropyl)-4,5,6,7-tetrahydro-1H-pyrazolo[4,3-c]pyridin-3-yl]phenyl}ethynyl)phenyl]methyl}carbamate]
5 | 1030 | COC(=O)C1COCCN1CCCn1nc(-c2ccc(Cl)c(C#Cc3ccc(CNCc4ccc(Cl)cc4)cc3)c2)c2c1CCN(S(C)(=O)=O)C2 (centres unmarked) [Example 418, Methyl 4-{3-[3-(4-chloro-3-{[4-({[(4-chlorophenyl)methyl]amino}methyl)phenyl]ethynyl}phenyl)-5-(methylsulfonyl)-4,5,6,7-tetrahydro-1H-pyrazolo[4,3-c]pyridin-1-yl]propyl}morpholine-3-carboxylate]
6 | 90 | NC(=O)N1CCc2c(c(-c3ccc(Cl)c(C#Cc4ccc(CNCc5ccc(Cl)cc5)cc4)c3)nn2CCCN2CCOCC2)C1 [Example 151, 3-(4-Chloro-3-{[4-({[(4-chlorophenyl)methyl]amino}methyl)phenyl]ethynyl}phenyl)-1-(3-morpholin-4-ylpropyl)-1,4,6,7-tetrahydro-5H-pyrazolo[4,3-c]pyridine-5-carboxamide]
7 | 8100 | Cc1ccc(S(=O)(=O)NCCCc2cc(-c3nn(CCCN4CCOCC4)c4c3CN(S(C)(=O)=O)CC4)ccc2Cl)cc1 [Example 84, N-(3-{2-Chloro-5-[5-methanesulfonyl-1-(3-morpholin-4-yl-propyl)-4,5,6,7-tetrahydro-1H-pyrazolo[4,3-c]pyridin-3-yl]-phenyl}-propyl)-4-methyl-benzenesulfonamide]
8 | 40 | NC(=O)N1CCc2c(c(-c3ccc(Cl)c(C#Cc4ccc(CNCc5ccc(Cl)cc5)cc4)c3)nn2CCCN2CCC(C(F)(F)F)CC2)C1 [Example 455, 3-(4-Chloro-3-{[4-({[(4-chlorophenyl)methyl]amino}methyl)phenyl]ethynyl}phenyl)-1-{3-[4-(trifluoromethyl)piperidin-1-yl]propyl}-1,4,6,7-tetrahydro-5H-pyrazolo[4,3-c]pyridine-5-carboxamide]
9 | 180 | CN(C)S(=O)(=O)N1CCc2c(c(-c3ccc(Cl)c(C#Cc4ccc(CNCc5ccc(Cl)cc5)cc4)c3)nn2CCCN2CCOCC2)C1 [Example 153, 3-(4-Chloro-3-{[4-({[(4-chlorophenyl)methyl]amino}methyl)phenyl]ethynyl}phenyl)-N,N-dimethyl-1-(3-morpholin-4-ylpropyl)-1,4,6,7-tetrahydro-5H-pyrazolo[4,3-c]pyridine-5-sulfonamide]
10 | 3660 | CN(C)CCCc1cc(-c2nn(CCCN3CCC(N4CCCC4=O)CC3)c3c2CN(S(C)(=O)=O)CC3)ccc1Cl [Example 314, 1-(1-{3-[3-{4-Chloro-3-[3-(dimethylamino)propyl]phenyl}-5-(methylsulfonyl)-4,5,6,7-tetrahydro-1H-pyrazolo[4,3-c]pyridin-1-yl]propyl}piperidin-4-yl)pyrrolidin-2-one]
11 | 80 | C[C@H]1COCCN1CC(O)Cn1nc(-c2ccc(Cl)c(C#Cc3ccc(CNCc4ccc(Cl)cc4)cc3)c2)c2c1CCN(C(N)=O)C2 (stereo in doubt) [Example 258, 3-(4-Chloro-3-{4-[(4-chloro-benzylamino)-methyl]-phenylethynyl}-phenyl)-1-[(2S)-2-hydroxy-3-((3S)-3-methyl-morpholin-4-yl)-propyl]-1,4,6,7-tetrahydro-pyrazolo[4,3-c]pyridine-5-carboxylic acid amide]
12 | 420 | COC(=O)Cc1ccc(C#Cc2cc(-c3nn(CCCN4CCOCC4)c4c3CN(S(C)(=O)=O)CC4)ccc2Cl)cc1 [Example 10, (4-{2-Chloro-5-[5-methanesulfonyl-1-(3-morpholin-4-yl-propyl)-4,5,6,7-tetrahydro-1H-pyrazolo[4,3-c]pyridin-3-yl]-phenylethynyl}-phenyl)-acetic acid methyl ester]
13 | 30 | CCOC(=O)C1CCN(CCCn2nc(-c3ccc(Cl)c(C#Cc4ccc(CNCc5ccc(Cl)cc5)cc4)c3)c3c2CCN(S(C)(=O)=O)C3)CC1 [Example 334, Ethyl 1-{3-[3-(4-chloro-3-{[4-({[(4-chlorophenyl)methyl]amino}methyl)phenyl]ethynyl}phenyl)-5-(methylsulfonyl)-4,5,6,7-tetrahydro-1H-pyrazolo[4,3-c]pyridin-1-yl]propyl}piperidine-4-carboxylate]
14 | 3950 | CS(=O)(=O)N1CCc2c(c(-c3ccc(C(F)(F)F)c(C#CCNS(=O)(=O)c4ccccc4)c3)nn2CC(O)CN2CCOCC2)C1 (centres unmarked) [Example 305, N-(3-{5-[1-(2-Hydroxy-3-morpholin-4-ylpropyl)-5-(methylsulfonyl)-4,5,6,7-tetrahydro-1H-pyrazolo[4,3-c]pyridin-3-yl]-2-(trifluoromethyl)phenyl}prop-2-yn-1-yl)benzenesulfonamide]

same assay, conditions: CatS IC50

Row | Compound | IC50 [nM]
15 | CS(=O)(=O)N1CCc2c(c(-c3ccc(Cl)c(C#Cc4ccc(CN[C@@H](CO)c5ccccc5)cc4)c3)nn2CCCN2CCOCC2)C1 [Example 209, (2R)-2-({[4-({2-Chloro-5-[5-(methylsulfonyl)-1-(3-morpholin-4-ylpropyl)-4,5,6,7-tetrahydro-1H-pyrazolo[4,3-c]pyridin-3-yl]phenyl}ethynyl)phenyl]methyl}amino)-2-phenylethanol] | 100
16 | C[C@H]1COCCN1CCCn1nc(-c2ccc(Cl)c(CCc3ccc(CNCc4ccc(Cl)cc4)cc3)c2)c2c1CCN(C(N)=O)C2 [Example 244, 3-(4-Chloro-3-{2-[4-({[(4-chlorophenyl)methyl]amino}methyl)phenyl]ethyl}phenyl)-1-{3-[(3S)-3-methylmorpholin-4-yl]propyl}-1,4,6,7-tetrahydro-5H-pyrazolo[4,3-c]pyridine-5-carboxamide] | 60
17 | CC(=O)NC1CCN(CCCn2nc(-c3ccc(Cl)c(C#Cc4ccc(CNCc5ccc(Cl)cc5)cc4)c3)c3c2CCN(C(N)=O)C3)CC1 [Example 459, 1-{3-[4-(Acetylamino)piperidin-1-yl]propyl}-3-(4-chloro-3-{[4-({[(4-chlorophenyl)methyl]amino}methyl)phenyl]ethynyl}phenyl)-1,4,6,7-tetrahydro-5H-pyrazolo[4,3-c]pyridine-5-carboxamide] | 20
18 | CS(=O)(=O)N1CCc2c(c(-c3ccc(Cl)c(C#Cc4cccc(CNCc5ccccn5)c4)c3)nn2CCCN2CCOCC2)C1 [Example 187, 1-[3-({2-Chloro-5-[5-(methylsulfonyl)-1-(3-morpholin-4-ylpropyl)-4,5,6,7-tetrahydro-1H-pyrazolo[4,3-c]pyridin-3-yl]phenyl}ethynyl)phenyl]-N-(pyridin-2-ylmethyl)methanamine] | 150
19 | CSc1ccc(CNCc2ccc(C#Cc3cc(-c4nn(CCCN5CCSCC5)c5c4CN(C(N)=O)CC5)ccc3Cl)cc2)cc1 [Example 550, 3-[4-Chloro-3-({4-[({[4-(methylsulfanyl)phenyl]methyl}amino)methyl]phenyl}ethynyl)phenyl]-1-(3-thiomorpholin-4-ylpropyl)-1,4,6,7-tetrahydro-5H-pyrazolo[4,3-c]pyridine-5-carboxamide] | 100
20 | CS(=O)(=O)N1CCc2c(c(-c3ccc(Cl)c(C#Cc4cccc(CNCc5ccc(Cl)cc5)c4)c3)nn2CCCN2CCN(c3ccccn3)CC2)C1 [Example 447, 1-{3-[(2-Chloro-5-{5-(methylsulfonyl)-1-[3-(4-pyridin-2-ylpiperazin-1-yl)propyl]-4,5,6,7-tetrahydro-1H-pyrazolo[4,3-c]pyridin-3-yl}phenyl)ethynyl]phenyl}-N-[(4-chlorophenyl)methyl]methanamine] | 70
21 | COC(=O)[C@@H]1Cc2ccc(C#Cc3cc(-c4nn(CCCN5CCOCC5)c5c4CN(S(C)(=O)=O)CC5)ccc3Cl)cc2CN1 [Example 198, Methyl (3S)-7-({2-chloro-5-[5-(methylsulfonyl)-1-(3-morpholin-4-ylpropyl)-4,5,6,7-tetrahydro-1H-pyrazolo[4,3-c]pyridin-3-yl]phenyl}ethynyl)-1,2,3,4-tetrahydroisoquinoline-3-carboxylate] | 70
22 | NC(=O)C(=O)N1CCc2c(c(-c3ccc(Cl)c(C#Cc4ccc(Cl)c(CNC5CCCC5)c4)c3)nn2CCCN2CCCCC2)C1 [Example 595, 2-{3-[4-Chloro-3-({4-chloro-3-[(cyclopentylamino)methyl]phenyl}ethynyl)phenyl]-1-(3-piperidin-1-ylpropyl)-1,4,6,7-tetrahydro-5H-pyrazolo[4,3-c]pyridin-5-yl}-2-oxoacetamide] | 10
23 | NC(=O)N1CCc2c(c(-c3ccc(Cl)c(C#Cc4cccc(CNCc5ccccc5F)c4)c3)nn2CCCN2CCSCC2)C1 [Example 515, 3-(4-Chloro-3-{[3-({[(2-fluorophenyl)methyl]amino}methyl)phenyl]ethynyl}phenyl)-1-(3-thiomorpholin-4-ylpropyl)-1,4,6,7-tetrahydro-5H-pyrazolo[4,3-c]pyridine-5-carboxamide] | 250

From US20080200454A1, “CARBON-LINKED TETRAHYDRO-PYRAZOLO-PYRIDINE MODULATORS OF CATHEPSIN S” (priority 2007, published 2008)
